Reference: patent publication US12643871B2, “Aryl formamide compound containing chiral sulfur oxide or salt thereof, preparation method, herbicidal composition and use thereof” (Qingdao Kingagroot Chemical Compound Co., Ltd., priority 2019, dated 2026)

Key:
Amaranthus retroflexus = test: Weeding effect in post-emergence stage; type: in vivo; details: 250 g/ha; 2 leaf stage; 15 days after application; fresh weight control rate
Source text: (§1) The activity level criteria for harmful plant damage (i.e., growth control rate) are as follows: • Level 5: growth control rate is above 85%; • Level 4: growth control rate is greater than or equal to 60% and less than 85%; • Level 3: growth control rate is greater than or equal to 40% and less than 60%; • Level 2: growth control rate is greater than or equal to 20% and less than 40%; • Level 1: growth control rate is greater than or equal to 5% and less than 20%; • Level 0: growth control rate is less than 5%.
(§2) The above growth control rates are fresh weight control rates.
(§3) Experiment on weeding effect in post-emergence stage: monocotyledonous and dicotyledonous weed seeds (Descurainia sophia, Capsella bursa-pastoris, Galium aparine, Stellaria media, Lithospermum arvense, Rorippa indica, Alopecurus aequalis, Beckmannia syzigachne, Sclerochloa dura, Phleum paniculatum, Bromus japonicus, Aegilops tauschii, Phalaris arundinacea, Amaranthus retroflexus, Chenopodiaceae, Commelina communis, Sonchus arvensis, convolvulus arvensis, Cirsium setosum, Solanum nigrum, Acalypha australis, Digitaria sanguinalis, Echinochloa crusgalli, Setaria viridis, Setaria glauca, Leptochloa chinensis, Monochoria vaginalis, Sagittaria trifolia, Scirpus juncoides, Cyperus rotundus, Cyperus iria, Cyperus difformis, Fimbristylis, Portulaca oleracea, Xanthium sibiricum, Pharbitis nil) and major crop seeds (wheat, corn, rice, soybean, cotton, oilseed rape, millet, sorghum, potato, sesame, ricinus) were placed in plastic pots filled with soil, then covered with 0.5-2 cm of soil, allowed to grow in a good greenhouse environment. After 2 weeks of sowing, the test plants were treated in the 2 leaf stage. The tested compounds of the present invention were respectively dissolved in acetone, then added with Tween 80 and 1.5 liter/ha of emulsifiable concentrate of methyl oleate as synergist, diluted with a certain amount of water to obtain a solution with a certain concentration, and sprayed with a spray tower onto the plants. After the application, the plants were cultured for 15 days in the greenhouse, and then the experimental results of the weeding were counted. The doses of the used compounds were 500, 250, 125, 60, 30, 15 g/ha, and the averages were obtained by repeating for three times.

Echinochloa crusgali = test: Weeding effect in post-emergence stage; type: in vivo; details: 250 g/ha; 2 leaf stage; 15 days after application; fresh weight control rate
Source text: as §1, §2, §3

Row | Structure (SMILES) | weeding effect in post-emergence stage, activity level (growth control rate), Amaranthus retroflexus (Amaranthus retroflexus) | weeding effect in post-emergence stage, activity level (growth control rate), Echinochloa crusgali (Echinochloa crusgali)
1 | COc1c(C(=O)Nc2nnc(C)o2)ccc(C(F)(F)F)c1[S+]([O-])COC(=O)C(C)(C)C (centres unmarked) [Compound 355] | 5 (Level 5: growth control rate is above 85%) | 5 (Level 5: growth control rate is above 85%)
2 | Cc1nnc(NC(=O)c2ccc(C(F)(F)F)c([S@@+]([O-])C(=O)c3ccco3)c2F)o1 [Compound 171] | 5 (Level 5: growth control rate is above 85%) | 5 (Level 5: growth control rate is above 85%)
3 | Cc1ccc(C(=O)Nc2nnnn2C)c(C)c1[S@+]([O-])CC(F)(F)F [Compound 478] | 5 (Level 5: growth control rate is above 85%) | 5 (Level 5: growth control rate is above 85%)
4 | Cc1nnc(NC(=O)c2ccc(S(C)(=O)=O)c([S@+]([O-])C(C)C)c2C)o1 [Compound 493] | 5 (Level 5: growth control rate is above 85%) | 5 (Level 5: growth control rate is above 85%)
5 | CCCn1nnnc1NC(=O)c1ccc(C(F)(F)F)c([S@+]([O-])CCC)c1F [Compound 383] | 5 (Level 5: growth control rate is above 85%) | 5 (Level 5: growth control rate is above 85%)
6 | CC[S@@+]([O-])c1c(C(F)(F)F)ccc(C(=O)Nc2ccon2)c1OC [Compound 457] | 5 (Level 5: growth control rate is above 85%) | 5 (Level 5: growth control rate is above 85%)
7 | C#CC[S@@+]([O-])c1c(S(C)(=O)=O)ccc(C(=O)Nc2nnc(C)o2)c1C [Compound 497] | 5 (Level 5: growth control rate is above 85%) | 5 (Level 5: growth control rate is above 85%)
8 | CCCCn1nnnc1NC(=O)c1ccc(C(F)(F)F)c([S@+]([O-])CC)c1OC [Compound 448] | 5 (Level 5: growth control rate is above 85%) | 5 (Level 5: growth control rate is above 85%)
9 | Cc1nnc(NC(=O)c2ccc(C(F)(F)F)c([S@+]([O-])CC=O)c2F)o1 [Compound 191] | 5 (Level 5: growth control rate is above 85%) | 5 (Level 5: growth control rate is above 85%)
10 | Cc1ccc(C(=O)Nc2nnnn2C)c(C)c1[S@+]([O-])C(C)C [Compound 476] | 5 (Level 5: growth control rate is above 85%) | 5 (Level 5: growth control rate is above 85%)
11 | CCC[S@@+]([O-])c1c(C)ccc(C(=O)Nc2nnc(C)o2)c1C [Compound 482] | 5 (Level 5: growth control rate is above 85%) | 5 (Level 5: growth control rate is above 85%)
12 | Cc1nnc(NC(=O)c2ccc(C(F)(F)F)c([S+]([O-])C#N)c2F)o1 (centres unmarked) [Compound 51] | 5 (Level 5: growth control rate is above 85%) | 5 (Level 5: growth control rate is above 85%)
13 | Cc1nnc(NC(=O)c2ccc(C(F)(F)F)c([S@@+]([O-])COC(=O)C(C)(C)C)c2F)o1 [Compound 202] | 5 (Level 5: growth control rate is above 85%) | 5 (Level 5: growth control rate is above 85%)
14 | COC(=O)C[S@@+]([O-])c1c(C(F)(F)F)ccc(C(=O)Nc2nnc(C)o2)c1F [Compound 196] | 5 (Level 5: growth control rate is above 85%) | 5 (Level 5: growth control rate is above 85%)
15 | CC[S@@+]([O-])c1c(C(F)(F)F)ccc(C(=O)N(C(=O)c2cn(C)nc2C)c2nnc(C)o2)c1F [Compound 223] | 5 (Level 5: growth control rate is above 85%) | 5 (Level 5: growth control rate is above 85%)
16 | Cc1c(C(=O)Nc2nnnn2C)ccc(S(C)(=O)=O)c1[S@@+](C)[O-] [Compound 511] | 5 (Level 5: growth control rate is above 85%) | 5 (Level 5: growth control rate is above 85%)
17 | CC[S@@+]([O-])c1c(C)ccc(C(=O)Nc2nnc(C)o2)c1C [Compound 481] | 5 (Level 5: growth control rate is above 85%) | 5 (Level 5: growth control rate is above 85%)
18 | CC(=O)C[S@@+]([O-])c1c(C(F)(F)F)ccc(C(=O)Nc2nnc(C)o2)c1F [Compound 193] | 5 (Level 5: growth control rate is above 85%) | 5 (Level 5: growth control rate is above 85%)
19 | Cc1nnc(NC(=O)c2ccc(C(F)(F)F)c([S@+]([O-])CC(=O)N(C)C)c2F)o1 [Compound 178] | 5 (Level 5: growth control rate is above 85%) | 5 (Level 5: growth control rate is above 85%)
20 | Cc1nnc(NC(=O)c2ccc(S(C)(=O)=O)c([S@@+](C)[O-])c2C)o1 [Compound 491] | 5 (Level 5: growth control rate is above 85%) | 5 (Level 5: growth control rate is above 85%)
21 | CC[S@@+]([O-])c1c(C(F)(F)F)ccc(C(=O)Nc2nnc(C(C)C)o2)c1OC [Compound 425] | 5 (Level 5: growth control rate is above 85%) | 5 (Level 5: growth control rate is above 85%)
22 | Cc1nnc(NC(=O)c2ccc(C(F)(F)F)c([S@+]([O-])CCC3CCCCC3)c2F)o1 [Compound 18] | 5 (Level 5: growth control rate is above 85%) | 5 (Level 5: growth control rate is above 85%)
